Measured values from ChEMBL document CHEMBL1201861, “Genomics of Drug Sensitity in Cancer screening data, Wellcome Trust Sanger Institute”.

Columns and labels:
Test in all cases: cells
BHY = assay type: functional, cell-based, Homo sapiens; conditions: Homo sapiens, BHY;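 note: cell growth inhibition read out by a viability assay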
Description: SANGER: Inhibition of human BHY cell growth in a cell viability assay.

KM12 = assay type: functional, cell-based, Homo sapiens; conditions: Homo sapiens, KM12;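 note: KM12 cell growth inhibition, read out with a cell viability assay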
Description: SANGER: Inhibition of human KM12 cell growth in a cell viability assay.

KP-N-YS = assay type: functional, cell-based; conditions: Homo sapiens;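 note: cell viability assay measuring inhibition of cell line growth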
Description: SANGER: Inhibition of human KP-N-YS cell growth in a cell viability assay.

LB996-RCC = assay type: functional, cell-based; conditions: Homo sapiens
Description: SANGER: Inhibition of human LB996-RCC cell growth in a cell viability assay.

NCI-H358 = assay type: functional, cell-based, Homo sapiens; conditions: Homo sapiens, NCI-H358;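 note: growth inhibition of NCI-H358 human cells, read out with a cell viability assay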
Description: SANGER: Inhibition of human NCI-H358 cell growth in a cell viability assay.

D-336MG = assay type: functional, cell-based, Homo sapiens; conditions: Homo sapiens, D-336MG
Description: SANGER: Inhibition of human D-336MG cell growth in a cell viability assay.

SK-HEP1 = assay type: functional, cell-based, Homo sapiens, SK-HEP-1; conditions: Homo sapiens, SK-HEP1;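 note: cell viability readout used to quantify reduction in proliferation of human SK-HEP-1 cells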
Description: SANGER: Inhibition of human SK-HEP-1 cell growth in a cell viability assay.

KNS-42 = assay type: functional, cell-based, Homo sapiens; conditions: Homo sapiens, KNS-42;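 note: growth inhibition of KNS-42 cells, read out with a cell viability assay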
Description: SANGER: Inhibition of human KNS-42 cell growth in a cell viability assay.

SNU-C2B = assay type: functional, cell-based, Homo sapiens; conditions: Homo sapiens, SNU-C2B;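 note: cell viability readout used to measure compound-driven suppression of SNU-C2B cell proliferation, IC50 marking half-maximal growth inhibition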
Description: SANGER: Inhibition of human SNU-C2B cell growth in a cell viability assay.

NOS-1 = assay type: functional, cell-based, Homo sapiens; conditions: Homo sapiens, NOS-1;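 note: growth inhibition of the human NOS-1 cell line, read out with a cell viability assay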
Description: SANGER: Inhibition of human NOS-1 cell growth in a cell viability assay.

FaDu = assay type: functional, cell-based, Homo sapiens; conditions: Homo sapiens, FaDu;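 note: cell viability readout of growth inhibition in FaDu cells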
Description: SANGER: Inhibition of human FADU cell growth in a cell viability assay.

HTC-C3 = assay type: functional, cell-based, Homo sapiens; conditions: Homo sapiens, HTC-C3;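 note: inhibition of cell growth, read out with a cell viability assay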
Description: SANGER: Inhibition of human HTC-C3 cell growth in a cell viability assay.

KLE = assay type: functional, cell-based, Homo sapiens; conditions: Homo sapiens, KLE;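 note: growth inhibition of human KLE cells, read out with a cell viability assay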
Description: SANGER: Inhibition of human KLE cell growth in a cell viability assay.

KP-4 = assay type: functional, cell-based, Homo sapiens; conditions: Homo sapiens, KP-4; read-out: IC50;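 note: human KP-4 cells, with growth inhibition read out through a cell viability assay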
Description: SANGER: Inhibition of human KP-4 cell growth in a cell viability assay.

Ramos-2G6-4C10 = assay type: functional, cell-based; conditions: Homo sapiens;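 note: growth inhibition of the cell line, measured by a cell viability read-out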
Description: SANGER: Inhibition of human Ramos-2G6-4C10 cell growth in a cell viability assay.

Ca9-22 = assay type: functional, cell-based, Homo sapiens; conditions: Homo sapiens, Ca9-22;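 note: growth inhibition of Ca9-22 cells, read out with a cell viability assay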
Description: SANGER: Inhibition of human Ca9-22 cell growth in a cell viability assay.

NCI-H1563 = assay type: functional, cell-based, Homo sapiens; conditions: Homo sapiens, NCI-H1563;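 note: growth inhibition of human NCI-H1563 cells, read out with a cell viability assay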
Description: SANGER: Inhibition of human NCI-H1563 cell growth in a cell viability assay.

8505C = assay type: functional, cell-based, Homo sapiens; conditions: Homo sapiens, 8505C
Description: SANGER: Inhibition of human 8505C cell growth in a cell viability assay.

D-542MG = assay type: functional, cell-based, Homo sapiens; conditions: Homo sapiens, D-542MG
Description: SANGER: Inhibition of human D-542MG cell growth in a cell viability assay.

KYSE-180 = assay type: functional, cell-based, Homo sapiens; conditions: Homo sapiens, KYSE-180;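 note: growth inhibition of KYSE-180 cells, read out with a cell viability assay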
Description: SANGER: Inhibition of human KYSE-180 cell growth in a cell viability assay.

WM-115 = assay type: functional, cell-based, Homo sapiens; conditions: Homo sapiens, WM-115
Description: SANGER: Inhibition of human WM-115 cell growth in a cell viability assay.

MSTO-211H = assay type: functional, cell-based, Homo sapiens; conditions: Homo sapiens, MSTO-211H
Description: SANGER: Inhibition of human MSTO-211H cell growth in a cell viability assay.

EFO-27 = assay type: functional, cell-based, Homo sapiens; conditions: Homo sapiens, EFO-27;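 note: growth inhibition of EFO-27 cells, read out with a cell viability assay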
Description: SANGER: Inhibition of human EFO-27 cell growth in a cell viability assay.

MKN-7 = assay type: functional, cell-based, Homo sapiens; conditions: Homo sapiens, MKN-7;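 note: growth inhibition of MKN-7 cells, read out with a cell viability assay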
Description: SANGER: Inhibition of human MKN7 cell growth in a cell viability assay.

GR-ST = assay type: functional, cell-based; conditions: Homo sapiens
Description: SANGER: Inhibition of human GR-ST cell growth in a cell viability assay.

ACHN = assay type: functional, cell-based, Homo sapiens; conditions: Homo sapiens, ACHN;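 note: cell viability read-out used to gauge how strongly growth of human ACHN cells is suppressed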
Description: SANGER: Inhibition of human ACHN cell growth in a cell viability assay.

8-MG-BA = assay type: functional, cell-based, Homo sapiens; conditions: Homo sapiens, 8-MG-BA;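 note: growth inhibition of 8-MG-BA cells, read out with a cell viability assay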
Description: SANGER: Inhibition of human 8-MG-BA cell growth in a cell viability assay.

SW982 = assay type: functional, cell-based; conditions: Homo sapiens;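 note: growth inhibition of SW982 cells, read out with a cell viability assay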
Description: SANGER: Inhibition of human SW982 cell growth in a cell viability assay.

MDA-MB-175-VII = assay type: functional, cell-based, Homo sapiens; conditions: Homo sapiens, MDA-MB-175-VII
SK-MEL-30 = assay type: functional, cell-based; conditions: Homo sapiens;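 note: growth inhibition of SK-MEL-30 cells, determined with a cell viability assay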
Description: SANGER: Inhibition of human SK-MEL-30 cell growth in a cell viability assay.

LCLC-103H cell line = assay type: functional, cell-based, Homo sapiens; conditions: Homo sapiens, LCLC-103H
Description: SANGER: Inhibition of human LCLC-103H cell growth in a cell viability assay.

MDA-MB-361 = assay type: functional, cell-based, Homo sapiens; conditions: Homo sapiens, MDA-MB-361
NCI-H1437 = assay type: functional, cell-based, Homo sapiens; conditions: Homo sapiens, NCI-H1437;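 note: growth inhibition of human NCI-H1437 cells, read out by a cell viability assay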
Description: SANGER: Inhibition of human NCI-H1437 cell growth in a cell viability assay.

RPMI-2650 = assay type: functional, cell-based, Homo sapiens; conditions: Homo sapiens, RPMI-2650
Description: SANGER: Inhibition of human RPMI-2650 cell growth in a cell viability assay.

EM-2 = assay type: functional, cell-based; conditions: Homo sapiens;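 note: growth inhibition of EM-2 cells, read out with a cell viability assay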
Description: SANGER: Inhibition of human EM-2 cell growth in a cell viability assay.

A204 = assay type: functional, cell-based, Homo sapiens; conditions: Homo sapiens, A204;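 note: growth inhibition of human A204 cells, read out with a cell viability assay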
Description: SANGER: Inhibition of human A204 cell growth in a cell viability assay.

PFSK-1 = assay type: functional, cell-based, Homo sapiens; conditions: Homo sapiens, PFSK-1;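 note: cell viability assay measuring how strongly compounds suppress growth of human PFSK-1 cells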
Description: SANGER: Inhibition of human PFSK-1 cell growth in a cell viability assay.

COR-L88 = assay type: functional, cell-based; conditions: Homo sapiens;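 note: growth inhibition of COR-L88 cells, read out with a cell viability assay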
Description: SANGER: Inhibition of human COR-L88 cell growth in a cell viability assay.

COLO-678 = assay type: functional, cell-based, Homo sapiens; conditions: Homo sapiens, COLO-678
Description: SANGER: Inhibition of human COLO-678 cell growth in a cell viability assay.

COLO-680N = assay type: functional, cell-based, Homo sapiens; conditions: Homo sapiens, COLO-680N;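 note: cell viability assay used to measure inhibition of COLO-680N cell growth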
Description: SANGER: Inhibition of human COLO-680N cell growth in a cell viability assay.

HuCCT-1 = assay type: functional, cell-based, Homo sapiens, HuCCT1; conditions: Homo sapiens, HuCCT-1;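 note: growth inhibition of HuCCT-1 cells, read out by a cell viability assay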
Description: SANGER: Inhibition of human HuCCT1 cell growth in a cell viability assay.

OAW-28 = assay type: functional, cell-based, Homo sapiens; conditions: Homo sapiens, OAW-28;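 note: growth inhibition of OAW-28 cells, read out with a cell viability assay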
Description: SANGER: Inhibition of human OAW-28 cell growth in a cell viability assay.

TE-11 = assay type: functional, cell-based, Homo sapiens; conditions: Homo sapiens, TE-11;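 note: growth inhibition of human TE-11 cells, read out by a cell viability assay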
Description: SANGER: Inhibition of human TE-11 cell growth in a cell viability assay.

TE-12 = assay type: functional, cell-based; conditions: Homo sapiens;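 note: growth inhibition of TE-12 cells, read out by a cell viability assay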
Description: SANGER: Inhibition of human TE-12 cell growth in a cell viability assay.

M059J = assay type: functional, cell-based, Homo sapiens; conditions: Homo sapiens, M059J;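 note: growth inhibition of M059J cells, read out with a cell viability assay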
Description: SANGER: Inhibition of human M059J cell growth in a cell viability assay.

CAKI-1 = assay type: functional, cell-based, Homo sapiens; conditions: Homo sapiens, CAKI-1;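 note: growth inhibition of CAKI-1 cells, measured by a cell viability assay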
Description: SANGER: Inhibition of human CAKI-1 cell growth in a cell viability assay.

HSC-2 = assay type: functional, cell-based, Homo sapiens; conditions: Homo sapiens, HSC-2;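 note: growth inhibition of human HSC-2 cells, read out by a cell viability assay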
Description: SANGER: Inhibition of human HSC-2 cell growth in a cell viability assay.

ES7 = assay type: functional, cell-based, Homo sapiens; conditions: Homo sapiens, ES7;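 note: growth inhibition of cultured human ES7 cells, read out as cell viability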
Description: SANGER: Inhibition of human ES7 cell growth in a cell viability assay.

NMC-G1 = assay type: functional, cell-based, Homo sapiens; conditions: Homo sapiens, NMC-G1;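 note: growth inhibition of the NMC-G1 cell line, measured with a cell viability read-out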
Description: SANGER: Inhibition of human NMC-G1 cell growth in a cell viability assay.

MDA-MB-415 = assay type: functional, cell-based; conditions: Homo sapiens

SMILES: CCOc1nc(NC(=O)Cc2cc(OC)ccc2OC)cc(N)c1C#N
- IC50 (BHY): > 10 µM
- IC50 (KM12): > 10 µM
- IC50 (KP-N-YS): > 10 µM
- IC50 (LB996-RCC): > 10 µM
- IC50 (NCI-H358): > 10 µM
- IC50 (D-336MG): > 10 µM
- IC50 (SK-HEP1): > 10 µM
- IC50 (KNS-42): > 10 µM
- IC50 (SNU-C2B): > 10 µM
- IC50 (NOS-1): > 10 µM
- IC50 (FaDu): > 10 µM
- IC50 (HTC-C3): > 10 µM
- IC50 (KLE): > 10 µM
- IC50 (KP-4): > 10 µM
- IC50 (Ramos-2G6-4C10): > 10 µM
- IC50 (Ca9-22): > 10 µM
- IC50 (NCI-H1563): > 10 µM
- IC50 (8505C): > 10 µM
- IC50 (D-542MG): > 10 µM
- IC50 (KYSE-180): > 10 µM
- IC50 (WM-115): > 10 µM
- IC50 (MSTO-211H): > 10 µM
- IC50 (EFO-27): > 10 µM
- IC50 (MKN-7): > 10 µM
- IC50 (GR-ST): > 10 µM
- IC50 (ACHN): > 10 µM
- IC50 (8-MG-BA): > 10 µM
- IC50 (SW982): > 10 µM
- IC50 (MDA-MB-175-VII): > 10 µM
- IC50 (SK-MEL-30): > 10 µM
- IC50 (LCLC-103H cell line): > 10 µM
- IC50 (MDA-MB-361): > 10 µM
- IC50 (NCI-H1437): > 10 µM
- IC50 (RPMI-2650): > 10 µM
- IC50 (EM-2): > 10 µM
- IC50 (A204): > 10 µM
- IC50 (PFSK-1): > 10 µM
- IC50 (COR-L88): > 10 µM
- IC50 (COLO-678): > 10 µM
- IC50 (COLO-680N): > 10 µM
- IC50 (HuCCT-1): > 10 µM
- IC50 (OAW-28): > 10 µM
- IC50 (TE-11): > 10 µM
- IC50 (TE-12): > 10 µM
- IC50 (M059J): > 10 µM
- IC50 (CAKI-1): > 10 µM
- IC50 (HSC-2): > 10 µM
- IC50 (ES7): > 10 µM
- IC50 (NMC-G1): > 10 µM
- IC50 (MDA-MB-415): > 10 µM

SMILES: C=CCNC1=C2C[C@@H](C)C[C@H](OC)[C@H](O)[C@@H](C)/C=C(\C)[C@H](OC(N)=O)[C@@H](OC)/C=C\C=C(/C)C(=O)NC(=CC1=O)C2=O [TANESPIMYCIN]
- IC50 (BHY): 0.237 µM
- IC50 (KM12): 0.0635 µM
- IC50 (KP-N-YS): 0.375 µM
- IC50 (LB996-RCC): 0.336 µM
- IC50 (NCI-H358): 0.687 µM
- IC50 (D-336MG): 0.0331 µM
- IC50 (SK-HEP1): > 1 µM
- IC50 (KNS-42): > 1 µM
- IC50 (SNU-C2B): 0.58 µM
- IC50 (NOS-1): 0.975 µM
- IC50 (FaDu): 0.00209 µM
- IC50 (HTC-C3): 0.265 µM
- IC50 (KLE): > 1 µM
- IC50 (KP-4): 0.0475 µM
- IC50 (Ramos-2G6-4C10): > 1 µM
- IC50 (Ca9-22): > 1 µM
- IC50 (NCI-H1563): 0.949 µM
- IC50 (8505C): 1 µM
- IC50 (D-542MG): > 1 µM
- IC50 (KYSE-180): 0.0926 µM
- IC50 (WM-115): 0.0376 µM
- IC50 (MSTO-211H): 0.558 µM
- IC50 (EFO-27): 0.1 µM
- IC50 (MKN-7): > 1 µM
- IC50 (GR-ST): > 1 µM
- IC50 (ACHN): 0.606 µM
- IC50 (8-MG-BA): 0.0947 µM
- IC50 (SW982): 0.03 µM
- IC50 (MDA-MB-175-VII): 0.0335 µM
- IC50 (SK-MEL-30): 0.912 µM
- IC50 (LCLC-103H cell line): > 1 µM
- IC50 (MDA-MB-361): 0.015 µM
- IC50 (NCI-H1437): 0.122 µM
- IC50 (RPMI-2650): > 1 µM
- IC50 (EM-2): > 1 µM
- IC50 (A204): 0.0225 µM
- IC50 (PFSK-1): > 1 µM
- IC50 (COR-L88): 0.0491 µM
- IC50 (COLO-678): 0.24 µM
- IC50 (COLO-680N): 0.194 µM
- IC50 (HuCCT-1): 0.323 µM
- IC50 (OAW-28): > 1 µM
- IC50 (TE-11): 0.08 µM
- IC50 (TE-12): > 1 µM
- IC50 (M059J): 0.0903 µM
- IC50 (CAKI-1): 0.321 µM
- IC50 (HSC-2): 0.341 µM
- IC50 (ES7): > 1 µM
- IC50 (NMC-G1): 0.293 µM
- IC50 (MDA-MB-415): 0.708 µM

SMILES: Cc1cnc(-c2cnc(NCCNc3ccc(C#N)cn3)nc2-c2ccc(Cl)cc2Cl)[nH]1 [LADUVIGLUSIB]
- IC50 (BHY): > 2.56 µM
- IC50 (KM12): > 2.56 µM
- IC50 (KP-N-YS): > 2.56 µM
- IC50 (LB996-RCC): > 2.56 µM
- IC50 (NCI-H358): > 2.56 µM
- IC50 (D-336MG): 0.846 µM
- IC50 (SK-HEP1): > 2.56 µM
- IC50 (KNS-42): > 2.56 µM
- IC50 (SNU-C2B): > 2.56 µM
- IC50 (NOS-1): > 2.56 µM
- IC50 (FaDu): > 2.56 µM
- IC50 (HTC-C3): > 2.56 µM
- IC50 (KLE): > 2.56 µM
- IC50 (KP-4): > 2.56 µM
- IC50 (Ramos-2G6-4C10): > 2.56 µM
- IC50 (Ca9-22): > 2.56 µM
- IC50 (NCI-H1563): > 2.56 µM
- IC50 (8505C): > 2.56 µM
- IC50 (D-542MG): > 2.56 µM
- IC50 (KYSE-180): 1.73 µM
- IC50 (WM-115): > 2.56 µM
- IC50 (MSTO-211H): > 2.56 µM
- IC50 (EFO-27): > 2.56 µM
- IC50 (MKN-7): > 2.56 µM
- IC50 (GR-ST): > 2.56 µM
- IC50 (ACHN): > 2.56 µM
- IC50 (8-MG-BA): > 2.56 µM
- IC50 (SW982): 0.214 µM
- IC50 (MDA-MB-175-VII): > 2.56 µM
- IC50 (SK-MEL-30): > 2.56 µM
- IC50 (LCLC-103H cell line): > 2.56 µM
- IC50 (MDA-MB-361): > 2.56 µM
- IC50 (NCI-H1437): > 2.56 µM
- IC50 (RPMI-2650): > 2.56 µM
- IC50 (EM-2): > 2.56 µM
- IC50 (A204): > 2.56 µM
- IC50 (PFSK-1): > 2.56 µM
- IC50 (COR-L88): > 2.56 µM
- IC50 (COLO-678): > 2.56 µM
- IC50 (COLO-680N): > 2.56 µM
- IC50 (HuCCT-1): > 2.56 µM
- IC50 (OAW-28): > 2.56 µM
- IC50 (TE-11): > 2.56 µM
- IC50 (TE-12): > 2.56 µM
- IC50 (M059J): > 2.56 µM
- IC50 (CAKI-1): > 2.56 µM
- IC50 (HSC-2): > 2.56 µM
- IC50 (ES7): > 2.56 µM
- IC50 (NMC-G1): > 2.56 µM
- IC50 (MDA-MB-415): > 2.56 µM
